Assay results reported in US6388089B1, “Brassinosteroid biosynthesis inhibitors” (Riken, priority 1998, dated 2002).

How the values were obtained:
[1] = system: rice (Oryza sativa cv. Koshihikari); test: rice growth bioassay (rice elongation test); format: in vivo; conditions: for growth of the rice plant (length of shoots): in vivo
Method: Further, rice growth bioassay was performed as follows. Seeds of rice (Oryza sativa cv. Koshihikari) were immersed in tap water for 2 hours, and then 10 seeds were immersed in 2 ml of 10 mM sodium acetate buffer (pH 5.4) containing 10 mM CaCl2 filled in a sterilized 15-ml test tube in the presence or absence of a test compound. The plants were grown in a growth chamber for 16 hours under a light condition (240 mE/m2s) and for 8 hours under a dark condition (25° C.). The plants were collected and the length of shoots was measured.

endogenous castasterone = conditions: side effect; cited from earlier work
vessel elements = conditions: cited from earlier work
[2] = system: Arabidopsis (wild-type, Colombia); test: Arabidopsis germination assay; format: in vivo
Method: Arabidopsis mutants such as det2 (de-etiolation) and cpd (constitutive photomorphogenesis and dwarfism) show strong dwarfism manifested as curled leaves in deep green. Although this phenotype disappears when brassinolide is administered externally, other plant hormones such as IAA and gibberellin are ineffective. Based on these findings, the compound of the present invention (Compound 1 obtained in Example 1) was used in Arabidopsis (wild-type, Colombia) germination assay. Screening was performed under a light condition with criteria whether or not the compound generates abnormality 1) which is morphologically similar to mutants in the brassinosteroid biosynthesis and 2) which disappears when brassinolide is administered. It was also examined whether or not the morphological change induced by the test compound was restored to the morphology of wild-type by addition of braassinolide under a dark condition.
(§1) The Arabidopsis germination assay was performed as follows. Seeds of wild-type and det were treated at a low temperature (2° C.) for 2 days, and the surfaces were sterilized with 1% NaOCl solution for 2 minutes and washed seven times with sterilized distilled water. The seeds were sown on 1% agar solid medium containing 0.5×Murashige and Skoog (1962) salt and 1.5% (w/v) sucrose in a plastic plate in the presence or absence of the test compound. The wild-type plant and det2 plant were grown in a growth chamber for 16 hours under a light condition (240 mE/m2s) and for 8 hours under a dark condition (25° C.). For the screening experiment, the plate was sealed with Parafilm (American National Can Co., Ltd., Chicago, Ill., USA). For the restoration experiment that required a longer experimental period, the seeds were sown on 1% agar solid medium containing 0.5×Murashige and Skoog (1962) salt and 1.5% (w/v) sucrose in Agripot (Kirin Brewery Co., Ltd.). The plants were grown in a growth chamber for 16 hours under a light condition (240 mE/m2s) and for 8 hours under a dark condition (28° C.).

[3] = system: dwarfed rice plant (Oryza sativa cv. Tan-ginbozu); test: rice leaf lamina inclination bioassay, explantation method; format: in vivo; conditions: RMB-61 1 μg/plant; FIG. 1
[4] = system: dwarfed rice plant (Oryza sativa cv. Tan-ginbozu); test: rice leaf lamina inclination bioassay, whole plant method; format: in vivo
Method: In the figure, “Angle” indicates an inclination angle; and the results are indicated with “Cont” for control (no treatment); “CT” for cathasterone (100 ng); “TE” for teasterone (100 ng); and “BL” for brassinolide (0.1 ng) wherein each dose per plant is shown. Generally, the biological activity of brassinosteroids is often evaluated by the in vitro rice leaf lamina inclination bioassay (explantation method: Wada et al., Plant Cell Physiol., 22, pp.323-325, 1981; Takatsuto, J. Chromat. A., 658, pp.3-15, 1994) which is highly sensitive and reliable. However, this conventional method is not suitable for analyzing the mechanism of action of brassinosteroid biosynthesis inhibitors. Recently, Fujioka et al. reported a method (whole plant method) in which the rice leaf lamina inclination bioassay is improved as an […] system. This method reflects the actual biosynthesis process of brassinosteroids by administration of various precursors of brassinolide. The inhibitory action of the compound of the present invention against the brassinolide biosynthesis was evaluated by the explantation method and the whole plant method. The rice leaf lamina inclination bioassay was performed essentially according to the procedure reported by Fujioka et al. as mentioned above by using a dwarfed rice plant (Oryza sativa cv. Tan-ginbozu). Seeds were immersed in water for 2 days at 28° C., and germinated seeds were subjected to selection of those having a uniform coleoptile length (about 1 to 2 mm). Five germinated seeds were planted on 30 ml of 1% agar medium contained in a glass jar (inner diameter: 26 mm×60 mm), and incubated under the aforementioned conditions for 3 days. Each test compound for the bioassay was dissolved in ethanol and placed on a lamina in an amount of […] by using a microsyringe. After the plants were incubated under the same growth conditions for 2 days, the external angle between the leaf lamina and its sheath was measured by using an annular protractor. Thirty plants in total (6 jars) were used for each treatment.

Arabidopsis = Arabidopsis assay with addition of brassinolide precursors; format: in vivo
Method: as §1
In order to confirm the action of RMB-61 also in the Arabidopsis assay, the seeds were grown with addition of the aforementioned brassinolide precursors, and recovery of the growth retardation caused by the RMB-61 treatment was observed. […] If RMB-61 is a specific inhibitor against the oxidation of cathasterone, it is expected that the morphological traits of the treated plants have similarities to the phenotypes of the mutants such as cpd (Szekeres et al., Cell, 85, pp.171-182, 1996). It is further expected that the action of RMB-61 will disappear when typhasterol, castasterone or brassinolide is administered, and in addition, the cpd phenotypes caused by brassinosteroids will disappear.

Row | SMILES | growth of the rice plant (length of shoots) [1] | amount of endogenous castasterone (endogenous castasterone) | differentiation of vessel elements induced by brassinolide (vessel elements) | induction of dwarfism ([2]; at 10^−6 M, among the test compounds) | concentration at which shapes of the plants significantly resemble det2 mutant ([2]; dose-effect test) | dwarfism / morphological change on simultaneous administration of brassinolide ([2]; with brassinolide) | inhibition of the action of brassinolide (inclination angle) [3] | effect on the inclination action by teasterone, typhasterol and castasterone ([4]; RMB-61 5 μg/plant, FIG. 2) | effect on the action of cathasterone (inclination angle) ([4]; RMB-61 5 μg/plant, cathasterone 100 ng, FIG. 2) | response of the rice plant to brassinosteroid after adding teasterone or brassinolide ([4]; rice plant in which the effect of cathasterone was negated by RMB-61) | effect on the gibberellin treatment ([1]; with gibberellin) | greening effect on administration of brassinosteroids (Arabidopsis; brassinosteroids except for cathasterone) | greening of plants (Arabidopsis; under weak light) | growth retardation in the presence of cathasterone (Arabidopsis; with cathasterone) | action of RMB-61 (growth retardation) in presence of brassinosteroids (Arabidopsis; with teasterone, 3-deoxoteasterone, typhasterol, castasterone or brassinolide)
1 | CC(C)(C)C(O)/C(=C\c1ccc(Cl)cc1)n1cncn1 (centres unmarked) [Uniconazol] | strong growth retardation action | slight reduction | inhibits differentiation of vessel elements |  |  |  |  |  |  |  |  |  |  |  | 
2 | CC(O)(c1ccccc1)C(Cc1ccc(Cl)cc1)n1cncn1 (centres unmarked) [Compound 1, 4-(4-chlorophenyl)-2-phenyl-3-(1,2,4-triazoyl)butan-2-ol] | no effect |  |  | most potent induction of dwarfism | ≥ 10^−5 M | negated | absolutely no inhibition | failed to offset | inhibited the action of cathasterone | restored | completely failed to effect the gibberellin treatment | eliminated | promoted greening | maintained | strongly inhibited the action of RMB-61
3 | CC(C)(C)[C@@H](O)[C@@H](Cc1ccc(Cl)cc1)n1cncn1 [paclobutrazol, reference compound] | elongation retardation action |  |  |  |  |  |  |  |  |  |  |  |  |  | 
